Experimental data: US20090298938A1, “USE OF SEMI SYNTHETIC ANALOGUES OF BOSWELLIC ACIDS FOR ANTICANCER ACTIVITY” (COUNCIL OF SCIENTIFIC & INDUSTRIAL RESEARCH, priority 2008, published 2009)

Tested on: Ehrlich Ascitic Carcinoma solid tumor
Test: Ehrlich ascitic tumor (solid) growth inhibition in mice
Type: in vivo, Swiss albino mice
Details: 9 days, evaluated day 13
Procedure: FIG. 9. Tumor growth inhibition by boswellic acid analogs. Mice treated intraperitoneally with a compound (designated “c”) of formula 1, wherein R3=COCH2CH2CH3, R1=H, R4+R5=O, have shown 22% tumor growth inhibition at a dose of about 50 mg/kg of body weight, and 41% tumor growth inhibition at a dose of 100 mg/kg of body weight.
Swiss albino mice of 6-8 weeks, weighing 18-23 g of single sex were used. For the initiation of experiment, 1×10^7 cells of EAC (Ehrlich Ascitic Carcinoma) cells were transplanted intramuscularly (i.m.) in 32 mice for the development of solid tumors. The day of tumor transplantation was assigned as day 0. Next day (day-1) animals were randomly selected and divided into four groups having equal number of mice in each group of similar body wt. Groups I and II were treated with compound of formula 1 where R3=COCH2CH2CH3, R1=H, R4+R5=O at the dose of 50 mg/kg b, wt and 100 mg/kg b. wt. intraperitoneally, respectively. Group III received 0.2 ml of 0.85% normal saline and served as normal control while group IV serving as positive control was treated with 5-FU (22 mg/kg b. wt.) intraperitoneally. The total duration of treatment was of 9 days. The evaluation of effect of treatment on tumor was done on 13th day. Ehrlich ascites cells (1×10^7) were injected intramuscularly in the right thigh muscles and on the following day animals started receiving treatment intraperitoneally in 0.5% Tween-20 daily at the indicated doses for 9 days. The growth of tumor and the efficacy of compound of formula 1, where R3=COCH2CH2CH3, R1=H, R4+R5=O in inhibiting tumor growth were evaluated on day 13 in terms of the weight of the tumor in treated and control groups count. The determination of solid tumor growth inhibition against EAT was calculated as percent tumor growth regression according to the following: […]

Q: For CCCC(=O)OC1CCC2(C)C(CCC3(C)C2C(=O)C=C2C4C(C)C(C)CCC4(C)CCC23C)C1(C)C(=O)O (centres unmarked) [R3=COCH2CH2CH3, R1=H, R4+R5=O], which tumor growth inhibition (50 mg/kg intraperitoneally) is on record?
A: 22%

Q: And the tumor growth inhibition (100 mg/kg intraperitoneally)?
A: 41%
